Patent publication US20110237499A1, “HYBRID TRIPYRROLE-OCTAARGININE COMPOUNDS AND THEIR USE AS MEDICAMENT IN THE TREATMENT OF CANCER AND MICROBIAL ILLNESSES” (priority 2008, published 2011)
Square brackets hold non-standard residues; d marks the D form. Peptide text beside a SMILES is read from it. * marks the point of attachment. FITC = O=C1OC2(c3ccc(O)cc3Oc3cc(O)ccc32)c2ccc(NC(=S)*)cc21; Ahx = NCCCCCC(=O)O

What was measured:
[1] = system: HeLa cells; assay: Cellular internalization assay in live HeLa cells (fluorescence microscopy); format: cell-based
Experimental: The internalization assays were performed in live HeLa cells.
The internalization assays were performed in live HeLa cells, recording the fluorescence images after 30 min, 90 min and 3 h.

[2] = system: HeLa 229 cells; assay: cells; format: cell-based; settings: 48 hours incubation
Experimental: Preliminary cytotoxicity studies have been performed using HeLa 229 cells, to verify the possible effect of the presence of octaarginine chain on the biological activity. These studies have been performed following an incubation during 48 hours and they were later evaluated by cell staining by crystal violet and later acetylation.

SMILES | extent of internalization (intracellular fluorescence) ([1]; images after 30 min, 90 min and 3 h) | intracellular localization of the fluorescence signal ([1]; incubation 90 min at 37° C., FIG. 2) | % Inhibition of the cellular growth ([2]; concentration 5.87 μM) | inhibition at 176.5 µM ([2]; Homo sapiens, HeLa 229, concentration 176.5 μM, read-out: % Inhibition of the cellular growth)
N=C(N)NCCC[C@H](NC(=O)[C@H](CCCNC(=N)N)NC(=O)[C@H](CCCNC(=N)N)NC(=O)[C@H](CCCNC(=N)N)NC(=O)[C@H](CCCNC(=N)N)NC(=O)[C@H](CCCNC(=N)N)NC(=O)[C@H](CCCNC(=N)N)NC(=O)[C@H](CCCNC(=N)N)NC(=O)CCCCCNC(=O)[C@H](CCCCN)NC(=O)CCCCCNC(=S)Nc1ccc2c(c1)C(=O)OC21c2ccc(O)cc2Oc2cc(O)ccc21)C(N)=O [1B] ({FITC-Ahx}-K[Ahx]RRRRRRRR-NH2) | the fluorescence is intense | exclusively localized in the cytoplasm | 1 ± 2% | –
CC(=O)Nc1c[nH]c(C(=O)Nc2cc(C(=O)Nc3cc(C(=O)NCCCN(C)C)n(C)c3)n(C)c2)c1 [compound 9] | – | – | – | 4 ± 3%
